Target: T1, Serine/threonine-protein kinase Chk1 (Homo sapiens, UniProt O14757)
T1 sequence (O14757 whole entry): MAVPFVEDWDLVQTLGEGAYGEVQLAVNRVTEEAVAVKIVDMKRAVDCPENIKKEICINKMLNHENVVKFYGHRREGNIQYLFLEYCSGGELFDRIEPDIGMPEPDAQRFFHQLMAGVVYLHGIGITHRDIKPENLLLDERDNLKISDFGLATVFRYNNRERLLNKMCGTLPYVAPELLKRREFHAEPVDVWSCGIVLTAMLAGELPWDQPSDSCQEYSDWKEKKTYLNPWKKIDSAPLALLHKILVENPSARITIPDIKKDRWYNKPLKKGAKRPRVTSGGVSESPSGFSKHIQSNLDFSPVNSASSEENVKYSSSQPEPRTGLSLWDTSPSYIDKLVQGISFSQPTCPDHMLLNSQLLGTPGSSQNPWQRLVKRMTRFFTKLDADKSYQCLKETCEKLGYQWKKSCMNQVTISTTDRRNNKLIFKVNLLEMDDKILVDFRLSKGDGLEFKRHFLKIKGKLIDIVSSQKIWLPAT
Assay: Inhibition of Chk1 (unknown origin)

## O=C1NC(=O)c2c1c1[nH]cnc1c1[nH]c3ccccc3c21 [GRANULATIMIDE]
  IC50: 250 nM

Source: ChEMBL document CHEMBL3352797, “Design of granulatimide and isogranulatimide analogues as potential Chk1 inhibitors: Study of amino-platforms for their synthesis” (Bioorg Med Chem, 2014)
